From PubChem BioAssay (NCI)
Several values for one entry are separate records, joined by “and”; a condition that tells them apart may be missing. Identical values can stand only once.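 Compound exposure: 48 hours, 5 concentrations, 96-well plates. GI50: concentration for 50% inhibition of growth. TGI: total growth inhibition.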

Assays:
Test in all cases: NCI anticancer screen, dose series, 48 h
LOX IMVI melanoma = system: LOX IMVI melanoma
OVCAR-5 ovarian = system: OVCAR-5 ovarian
RPMI-8226 leukemia = system: RPMI-8226 leukemia
CCRF-CEM leukemia = system: CCRF-CEM leukemia
U251 CNS = system: U251 CNS
ACHN renal = system: ACHN renal
IGROV1 ovarian = system: IGROV1 ovarian
MCF7 breast = system: MCF7 breast
HT29 colon = system: HT29 colon
PC-3 prostate = system: PC-3 prostate

Row | SMILES | GI50 (LOX IMVI melanoma) | TGI (LOX IMVI melanoma) | GI50 (OVCAR-5 ovarian) | TGI (OVCAR-5 ovarian) | GI50 (RPMI-8226 leukemia) | TGI (RPMI-8226 leukemia) | GI50 (CCRF-CEM leukemia) | TGI (CCRF-CEM leukemia) | GI50 (U251 CNS) | TGI (U251 CNS) | GI50 (ACHN renal) | TGI (ACHN renal) | GI50 (IGROV1 ovarian) | TGI (IGROV1 ovarian) | GI50 (MCF7 breast) | TGI (MCF7 breast) | GI50 (HT29 colon) | TGI (HT29 colon) | GI50 (PC-3 prostate) | TGI (PC-3 prostate)
1 | CC(C)(C)c1nnc2n(c1=O)N=CC(c1ccc(Br)cc1)S2 (stereo not drawn) | 22.5 µM | 46.8 µM | 42.2 µM | > 100 µM | 25.6 µM | > 100 µM | 31.3 µM | > 100 µM | 26 µM | 66.9 µM | 29.6 µM | 75.9 µM | 26.5 µM | 92.8 µM | 42 µM | > 100 µM | 43.8 µM | > 100 µM | 42.1 µM | > 100 µM
2 | CC1(C)CC[C@]2(C(=O)O)CC[C@]3(C)[C@H](CC[C@@H]4[C@@]5(C)CCC(=O)C(C)(C)[C@@H]5CC[C@]43C)[C@H]2[C@H]1OC(=O)C(F)(F)F | 5.91 µM | 18.9 µM | 15.7 µM | 30.7 µM | 4.82 µM | 30.9 µM | 9.51 µM | 41.5 µM | 12.4 µM | 26.2 µM | 13.3 µM | 26.1 µM | 18.9 µM | 40.5 µM | 5.02 µM | 25.4 µM | 4.06 µM | 16.7 µM | 3.98 µM | 17.9 µM
3 | O=[N+]([O-])c1ccc2c(c1)S(=O)c1ccccc1-2 (stereo not drawn) |  | > 100 µM |  | > 100 µM |  | > 100 µM |  | > 100 µM |  | > 100 µM |  | > 100 µM |  | > 100 µM |  | > 100 µM |  | > 100 µM |  | > 100 µM
4 | O=C1C=C(Nc2nc(C(=O)O)cc(=O)[nH]2)c2ccccc2C1=O |  | > 100 µM |  | > 100 µM |  | > 100 µM |  | > 100 µM |  | > 100 µM |  | > 100 µM |  | > 100 µM |  | > 100 µM |  | > 100 µM |  | > 100 µM
5 | O=C1C(=O)c2c(nc3ncccn23)-c2ccccc21 | 0.15 µM | 0.339 µM | 0.397 µM | 0.852 µM | 0.198 µM | 0.602 µM | 0.328 µM | 3.45 µM | 0.316 µM | 1.16 µM | 0.174 µM | 0.373 µM | 0.245 µM | 0.566 µM | 0.179 µM | 0.406 µM | 0.838 µM | 2.29 µM | 0.32 µM | 1.34 µM
6 | CC(C)CC(=O)CC(O)C(Cl)(Cl)Cl (stereo not drawn) |  | > 100 µM |  | > 100 µM |  | > 100 µM |  | > 100 µM |  | > 100 µM |  | > 100 µM |  | > 100 µM |  | > 100 µM |  | > 100 µM |  | > 100 µM
7 | Cc1ccc(-n2c(-c3ccc(Cl)cc3)cs/c2=N\NC(=O)COc2n[nH]c(=O)c3ccccc23)cc1 | > 100 µM | > 100 µM | > 100 µM | > 100 µM | > 100 µM | > 100 µM | > 100 µM | > 100 µM | 37.5 µM | > 100 µM | > 100 µM | > 100 µM | > 100 µM | > 100 µM | 70.7 µM | > 100 µM | > 100 µM | > 100 µM | > 100 µM | > 100 µM
8 | COc1ccc(-c2[nH]ncc2-c2cc(OC)c(OC)c(OC)c2)cc1 | < 0.01 µM | 44.4 µM | < 0.018 µM | > 47.7 µM | 0.0132 µM | 16 µM | < 0.0163 µM | 28.8 µM | < 0.01 µM | 6.11 µM | < 0.01 µM | > 42.9 µM | < 0.01 µM | 7.73 µM | < 0.01 µM | 22.5 µM | < 0.01 µM | 0.0326 µM | < 0.01 µM | 32.5 µM
9 | COc1ccc2sc3c(NCCCNCCO)nc4ccccc4c3c(=O)c2c1 | 1.57 µM | 3 µM | 1.6 µM | 3.05 µM | 1.71 µM | 3.86 µM | 1.74 µM | 4.06 µM | 1.6 µM | 3.16 µM | 1.63 µM | 2.99 µM | 1.33 µM | 2.85 µM | 1.54 µM | 3.1 µM | 1.57 µM | 3.03 µM | 1.58 µM | 3.1 µM
10 | N#CC(=S)Nc1ccc(F)cc1 |  | > 100 µM |  | > 100 µM |  | 41.6 µM |  | 54.9 µM |  | > 100 µM |  | > 100 µM |  | > 100 µM |  | > 100 µM |  | > 100 µM |  | > 100 µM
11 | O=[N+]([O-])c1ccc(O)c2ncccc12 |  | > 100 µM and 13 µM |  | > 100 µM and 40.5 µM |  | > 100 µM |  | > 100 µM |  | > 100 µM and 13.3 µM | 42.5 µM and 4.81 µM | > 100 µM and 35.8 µM |  | > 100 µM and 13.8 µM | 23.1 µM and 3.39 µM | > 100 µM and 11.5 µM |  | > 100 µM and 18.9 µM | 35.8 µM and 4.02 µM | > 100 µM
12 | CCOC(=O)c1cnc2c(cnn2CC)c1NN=C(C)C | 35.3 µM | > 100 µM | 26.6 µM | > 100 µM | 74.2 µM | > 100 µM | 78.3 µM | > 100 µM | 35.6 µM | > 100 µM | 24 µM | > 100 µM | 38.3 µM | > 100 µM | 90.4 µM | > 100 µM | 23.3 µM | > 100 µM | 37.5 µM | > 100 µM
13 | Cc1nc2ccc(NCCN(C)C)c3c(=O)c4cc(O)ccc4n1c23 |  | 2.62 µM |  | 6.05 µM |  | 6.23 µM |  | 2.5 µM |  | 11.7 µM |  | 1.94 µM |  | 9.46 µM |  | 11.5 µM |  | 2.4 µM |  | 4.86 µM
14 | Oc1ccc(-c2nc3ccc4[nH]ncc4c3c3c2CCCC3)c2cccnc12 | 0.203 µM | 4.01 µM | 1.16 µM | 14.7 µM | 0.158 µM | 4.12 µM | 0.204 µM | 11.8 µM | 0.143 µM | 5.97 µM | 0.181 µM | 3.07 µM | 0.196 µM | 4.06 µM | 0.179 µM | 2.89 µM | 1.09 µM | 6.73 µM | 0.389 µM | 6.56 µM
15 | C=C1C(=O)O[C@H]2[C@H]1CC/C(COC(=O)C(=O)c1cn(C)c3ccc(OC)cc13)=C\CC[C@@]1(C)O[C@@H]21 | 1.57 µM | 2.62 µM | 6.12 µM | 13.6 µM | 2.34 µM | 19.5 µM | 2.39 µM | 22.4 µM | 6.58 µM | 10.1 µM | 3.18 µM | 7.79 µM | 2.27 µM | 6.01 µM | 2.8 µM | 16.4 µM | 2.23 µM | 5.4 µM | 5.89 µM | 10.8 µM
16 | CC(C)(CCC(C)(C)c1ccccc1)c1ccccc1 |  | 32 µM |  | 33.5 µM |  | 36.1 µM |  | 39.9 µM |  | 30.4 µM |  | 31.7 µM |  | 79.7 µM |  | 32.8 µM |  | 27.8 µM |  | > 100 µM
17 | Nc1c(O)c(S(=O)(=O)O)c(O)c2c1C(=O)c1ccccc1C2=O | 3.08 µM | 12.3 µM | 3.22 µM | 32.5 µM | 2.53 µM | 7.77 µM | 3.1 µM | 11 µM | 3.09 µM | 11.1 µM | 2.43 µM | 6.8 µM | 3.29 µM | > 100 µM | 2.5 µM | 8.13 µM | 2.72 µM | 10.4 µM | 2.32 µM | 7.87 µM
18 | CCc1nc(N)nc(N)c1-c1ccc(Cl)c(N=NN(C)C)c1 |  | > 100 µM |  | > 100 µM |  | 49 µM |  | > 73.2 µM |  | > 100 µM |  | > 89.7 µM |  | > 95.5 µM |  | > 81.6 µM |  | > 91.4 µM |  | > 100 µM
19 | C#CC#CC#CC#CC#CC#CC#CC#CCC1OC[C@H](COC(=O)O[C@@H](C(=O)O[C@H]2C[C@@]3(O)[C@@H](OC(=O)c4ccccc4)[C@@H]4[C@]5(OC(C)=O)CO[C@@H]5C[C@H](O)[C@@]4(C)C(=O)[C@H](OC(C)=O)C(=C2C)C3(C)C)[C@@H](NC(=O)c2ccccc2)c2ccccc2)O1 (stereo partly drawn) | 0.199 µM | > 33.3 µM | 0.554 µM | > 33.3 µM | 0.114 µM | > 33.3 µM | 0.632 µM | > 33.3 µM | 0.394 µM | > 33.3 µM | > 33.3 µM | > 33.3 µM | 0.424 µM | > 33.3 µM | 0.0921 µM | > 33.3 µM | 0.114 µM | > 33.3 µM | 0.569 µM | > 33.3 µM
20 | CS(=O)(=O)CS(=O)CS(=O)CS(=O)CC(NC(=O)CCC(N)C(=O)O)C(=O)O (stereo not drawn) |  | > 100 µM |  | > 100 µM |  | > 100 µM |  | > 100 µM |  | > 100 µM |  | > 100 µM |  | > 100 µM |  | > 100 µM |  | > 100 µM |  | > 100 µM
